# Test results taken from patent US5663331A, “Cephalosporin compounds” (Il-Dong Pharm. Co., Ltd., priority 1992, dated 1997).
# Experiments:
# Assay type in all cases: cell-based
# [1] = system: Bacillus subtilis ATCC 6633; assay: MIC, two-fold dilution method, Bacillus subtilis ATCC 6633; conditions: 10^6 CFU per ml, 37° C., 18 to 20 hours; for Antibacterial Activity (MIC): Muller Hinton Broth
# How it was run: (§1)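 First, compound is diluted two-fold serially into Mueller Hinton Broth; next, test strain at 10^6 CFU/ml is added; finally, incubation runs 18–20 h at 37° C. before MIC determination.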
# [2] = system: Staphylococcus aureus ATCC 65389; assay: MIC, two-fold dilution method, Staphylococcus aureus ATCC 65389; conditions: 10^6 CFU per ml, 37° C., 18 to 20 hours; for Antibacterial Activity (MIC): Muller Hinton Broth
# How it was run: as §1
# [3] = system: Staphylococcus epidermidis ATCC 12228; assay: MIC, two-fold dilution method, Staphylococcus epidermidis ATCC 12228; conditions: 10^6 CFU per ml, 37° C., 18 to 20 hours; for Antibacterial Activity (MIC): Muller Hinton Broth
# How it was run: as §1
# [4] = system: Streptococcus faecalis ATCC 10541; assay: MIC, two-fold dilution method, Streptococcus faecalis ATCC 10541; conditions: 10^6 CFU per ml, 37° C., 18 to 20 hours; for Antibacterial Activity (MIC): Muller Hinton Broth
# How it was run: as §1
# [5] = system: Pseudomonas aeurginosa NCTC 10490; assay: MIC, two-fold dilution method, Pseudomonas aeurginosa NCTC 10490; conditions: 10^6 CFU per ml, 37° C., 18 to 20 hours; for Antibacterial Activity (MIC): Muller Hinton Broth
# How it was run: as §1
# [6] = system: Esherichia coli ATCC 25922; assay: MIC, two-fold dilution method, Esherichia coli ATCC 25922; conditions: Muller Hinton Broth, 10^6 CFU per ml, 37° C., 18 to 20 hours
# How it was run: as §1
# [7] = system: Klebsiella pneumoniae ATCC 10031; assay: MIC, two-fold dilution method, Klebsiella pneumoniae ATCC 10031; conditions: 10^6 CFU per ml, 37° C., 18 to 20 hours; for Antibacterial Activity (MIC): Muller Hinton Broth
# How it was run: as §1
SMILES,"MIC ([1]; ATCC6633, Muller Hinton Broth, read-out: Antibacterial Activity (MIC)) [µg/mL]","MIC ([2]; ATCC65389, Muller Hinton Broth, read-out: Antibacterial Activity (MIC)) [µg/mL]","MIC ([3]; ATCC12228, Muller Hinton Broth, read-out: Antibacterial Activity (MIC)) [µg/mL]","MIC ([4]; Enterococcus faecalis, ATCC10541, Muller Hinton Broth, read-out: Antibacterial Activity (MIC)) [µg/mL]","MIC ([5]; NCTC10490, Muller Hinton Broth, read-out: Antibacterial Activity (MIC)) [µg/mL]",MIC ([6]; read-out: Antibacterial Activity (MIC)) [µg/mL],"MIC ([7]; ATCC10031, Muller Hinton Broth, read-out: Antibacterial Activity (MIC)) [µg/mL]",Antibacterial Activity (MIC) [1] [µg/mL],Antibacterial Activity (MIC) [2] [µg/mL],Antibacterial Activity (MIC) [3] [µg/mL],Antibacterial Activity (MIC) [4] [µg/mL],Antibacterial Activity (MIC) [5] [µg/mL],Antibacterial Activity (MIC) [6] [µg/mL],Antibacterial Activity (MIC) [7] [µg/mL]
"CCN1CCN(c2cc3c(cc2F)c(SCC2=C(C(=O)[O-])N4C(=O)C(NC(=O)/C(=N\OC(C)(C)C(=O)O)c5csc(N)n5)C4SC2)cc[n+]3CC)CC1 (stereo not drawn) [Compound I-61, 7-[(Z)-2-(2-aminothiazol-4-yl)-2-(2-carboxyprop-2-oxyimino)acetamido]-3-[1-ethyl-6-fluoro-7-(1-ethylpiperazinyl)quinolinium-4-yl]thiomethyl-3-cephem-4-carboxylate]",3.13,1.56,1.56,0.39,1.56,3.13,3.13,,,,,,,
"C=CC[n+]1ccc(SCC2=C(C(=O)[O-])N3C(=O)C(NC(=O)/C(=N\OC(C)(C)C(=O)O)c4csc(N)n4)[C@H]3SC2)c2cc(F)c(N3CCNCC3C)cc21 (stereo partly drawn) [Compound I-64, 7-[(Z)-2-(2-aminothiazol-4-yl)-2-(2-carboxyprop-2-oxyimino)acetamido]-3-[1-allyl-6-fluoro-7-(2-methylpiperazinyl)quinolinium-4-yl]thiomethyl-3-cephem-4-carboxylate]",,,,,,,,1.56,3.13,1.56,0.39,3.13,1.56,1.56
"Cc1cn(-c2cc3c(cc2F)c(SCC2=C(C(=O)[O-])N4C(=O)C(NC(=O)/C(=N\OC(C)(C)C(=O)O)c5csc(N)n5)[C@H]4SC2)cc[n+]3C2CC2)cn1 (stereo partly drawn) [Compound I-68, 7-[(Z)-2-(2-aminothiazol-4-yl)-2-(2-carboxyprop-2-oxyimino)acetamido]-3-[1-cyclopropyl-6-fluoro-7-(4-methylimidazolyl)quinolinium-4-yl]thiomethyl-3-cephem-4-carboxylate]",,,,,,,,0.78,1.56,1.56,0.2,0.78,1.56,0.78
